Measured values as given in the supplement of paper PMC10307832.

Key:
Experiment in all cases: relative viability (nuclei count vs DMSO), 5 days (fraction); higher = more cells survive
[1] = compound: C1/C(=C\C2=CC=CS2)/C(=O)/C(=C/C3=CC=CS3)/C1 + CS(=O)(=O)N1CCN(Cc2cc3nc(-c4cccc5[nH]ncc45)nc(N4CCOCC4)c3s2)CC1 [Pictilisib] (partner 1 µM)
Outline: (§1)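 Medians of duplicate plates are given as relative viability. That measure is the nuclei count in treated wells divided by the count in vehicle wells. Counts were taken on 4× images of lung cancer cell lines in 1536-well plates, 5 days after pin-tool dosing the day after seeding with one drug alone or a fixed anchor-drug dose plus five library-drug doses (not always all listed) in √10 steps.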

[2] = compound: C[C@]12O[C@H](C[C@]1(O)CO)n1c3ccccc3c3c4c(c5c6ccccc6n2c5c31)CNC4=O [Lestaurtinib] + CS(=O)(=O)N1CCN(Cc2cc3nc(-c4cccc5[nH]ncc45)nc(N4CCOCC4)c3s2)CC1 [Pictilisib] (partner 1 µM)
Outline: as §1

[3] = compound: C[C@]12O[C@H](C[C@]1(O)CO)n1c3ccccc3c3c4c(c5c6ccccc6n2c5c31)CNC4=O [Lestaurtinib] + Nc1ncn([C@H]2C[C@H](O)[C@@H](CO)O2)c(=O)n1 [Decitabine] (partner 2 µM)
Outline: as §1

[4] = compound: C1/C(=C\C2=CC=CS2)/C(=O)/C(=C/C3=CC=CS3)/C1 + CS(=O)(=O)CCNCc1ccc(-c2ccc3ncnc(Nc4ccc(OCc5cccc(F)c5)c(Cl)c4)c3c2)o1 [Lapatinib] (partner 2 µM)
Outline: as §1

Cell Line	relative viability ([1]; first compound 0.2 µM)	relative viability ([1]; first compound 0.6325 µM)	relative viability ([1]; first compound 2 µM)	relative viability ([1]; first compound 6.325 µM)	relative viability ([1]; first compound 20 µM)	relative viability ([2]; first compound 0.005 µM)	relative viability ([2]; first compound 0.01581 µM)	relative viability ([2]; first compound 0.05 µM)	relative viability ([2]; first compound 0.1581 µM)	relative viability ([2]; first compound 0.5 µM)	relative viability ([3]; first compound 0.005 µM)	relative viability ([3]; first compound 0.01581 µM)	relative viability ([3]; first compound 0.05 µM)	relative viability ([3]; first compound 0.1581 µM)	relative viability ([3]; first compound 0.5 µM)	relative viability ([4]; first compound 0.2 µM)	relative viability ([4]; first compound 0.6325 µM)	relative viability ([4]; first compound 2 µM)	relative viability ([4]; first compound 6.325 µM)	relative viability ([4]; first compound 20 µM)
LCLC-103H	0.573	0.57	0.757	0.483	0.551	0.61	0.623	0.521	0.443	0.481	0.783	0.79	0.687	0.534	0.703	–	–	–	–	–
LK-2	0.521	0.635	0.487	0.491	0.561	0.57	0.648	0.481	0.433	0.28	0.281	0.462	0.239	0.224	0.145	0.897	0.887	1.2	1.05	0.988
LOU-NH91	0.522	0.502	0.508	0.524	0.481	0.539	0.482	0.517	0.444	0.314	0.818	0.816	0.804	0.679	0.659	0.744	0.821	0.782	0.607	0.802
LU99A	0.345	0.403	0.303	0.276	0.353	0.298	0.312	0.253	0.205	0.179	0.711	0.84	0.572	0.366	0.276	0.914	0.958	1.23	0.785	0.95
NCI-H441	0.523	0.418	0.541	0.489	0.523	0.346	0.342	0.215	0.299	0.171	0.255	0.124	0.233	0.247	0.253	–	–	–	–	–
NCI-H522	–	–	–	–	–	–	–	–	–	–	0.683	0.71	0.811	0.652	0.537	–	–	–	–	–
NCI-H1299	0.79	0.863	0.806	0.758	0.799	0.558	0.502	0.222	0.305	0.133	–	–	–	–	–	1.04	0.951	0.909	0.939	0.995
NCI-H1563	0.753	0.678	0.634	0.662	0.636	0.635	0.709	0.618	0.638	0.536	–	–	–	–	–	0.996	0.903	0.97	0.953	0.955
NCI-H1648	–	–	–	–	–	–	–	–	–	–	–	0.535	–	0.762	0.512	–	–	–	–	–
NCI-H1703	0.278	0.247	0.259	0.227	0.248	0.254	0.217	0.201	0.173	0.132	–	–	–	–	–	1.21	1.21	1.18	1.1	1.11
NCI-H2228	0.337	0.362	0.479	0.295	0.287	0.461	0.551	0.332	0.325	0.198	–	–	–	–	–	1.22	1.12	1.14	0.939	1
NCI-H2342	–	–	–	–	–	–	–	–	–	–	0.713	0.76	0.742	0.722	0.77	–	–	–	–	–
SW 900	–	–	–	–	–	–	–	–	–	–	0.405	0.372	0.451	0.624	0.541	–	–	–	–	–
